Here are results for two molecules from US20250302904A1, “EXTRACTS IN EUTECTIC SOLVENT OF OLIVE OIL POLYPHENOLS, COMPOSITIONS, USES AND METHODS OF PREPARATION THEREOF” (ACTIVE-ITALIA S.R.L., priority 2022, published 2025).

A short description of data set [1]: Additional stability tests of oleocanthal and oleacein in water or formulated product (NaDES), 6 months. The conditions noted are these: for degradation with respect to control at time zero: formulated product (NaDES betaine/propylene glycol 1:3.3); for degradation: in water. The class given is physicochemical. On the procedure: FIG. 4. Stability over time (6 months) of oleacein and oleocanthal at 25° C. and 40° C. in water and in the formulated product (serum NaDES diluted in almond oil). The values represent standard averages and deviations (N=3). The significance tests were performed with one-way ANOVA (p<=0.05).
Additional stability tests of oleocanthal and oleacein in water or in NaDES (that is in NaDES mixture comprising betaine/propylene glycol 1:3.3) were performed for 6 months, at different temperatures. The results obtained from the stability tests over time (6 months) of oleacein and oleocanthal, at two different temperatures (25° C. and 40° C. (accelerated stability)), in water and in the formulated product, are shown in FIG. 4. […] In particular, in water, after six months at 25° C., there is a degradation of oleacein and oleocanthal by about 70% and l′80%, respectively. At 40° C. the degradation results to be still more evident: about 90% for oleacein and 80% for oleocanthal. On the contrary, in the product formulated according to the present invention (NaDES betaine/propylene glycol 1:3.3), the degradation of the active principles, with respect to control at time zero, results to be modest at 25° C. and by about 50% and 30% for oleacein and oleocanthal respectively at 40° C.

A short description of data set [2]: Stability test of oleocanthal and oleacein in NaDES or water, 30 days. The conditions noted are these: after 30 days, 10 mM. The class given is physicochemical. The method, then:
Oleocanthal and oleacein were dissolved at a final concentration equal to 10 mM in water or in NaDES (Betaine/Propylene glycol, Bet/Prop) and subjected to stability test.

The mark [3] stands for this setting: NaDES betaine/propylene glycol (1:3.3), 25° C.
The mark [4] stands for this setting: NaDES betaine/propylene glycol (1:3.3), 40° C.

Take `CC=C(C=O)C(CC=O)CC(=O)OCCc1ccc(O)c(O)c1` (stereo in doubt) [Oleacein]: the “degradation with respect to control at time zero” value in data set [1] (six months at 25° C.) is “modest”; in data set [1] (six months at 40° C.), “about 50%”. Besides, the values for the degradation entry in data set [1] (after six months at 25° C.) and in data set [1] (six months at 40° C.) were “about 70%” and “about 90%”, respectively. Also, the “% loss” value in data set [2] (H2O, 25° C.) is reported as 8.1%; in data set [2] (H2O, 40° C.) it was 38.1%; in data set [2] (setting [3]), ~0%; in data set [2] (setting [4]), 4.5%.

Regarding `C/C=C(/C=O)[C@@H](CC=O)CC(=O)OCCc1ccc(O)cc1` [Oleocanthal], the “degradation with respect to control at time zero” value in data set [1] (six months at 25° C.) is “modest”; in data set [1] (six months at 40° C.), ~30%. Besides, the degradation in data set [1] (after six months at 25° C.) and in data set [1] (six months at 40° C.) was ~80% throughout. The “% loss” value in data set [2] (H2O, 25° C.) was 7.5%; in data set [2] (H2O, 40° C.), 32.6%; in data set [2] (setting [3]) it was ~0%; in data set [2] (setting [4]), 1.4%.
